{"source": "paper PMC11149917", "about": "“Translational and Therapeutic Evaluation of RAS-GTP Inhibition by RMC-6236 in RAS-Driven Cancers” (Cancer Discovery, 2024)", "tested_on": "DUSP6 mRNA in NCI-H441 xenograft tumors", "test": "In vivo PD by DUSP6 qPCR and PK/PD relationship", "design": "species or system mouse", "details": "for % inhibition of DUSP6 vs control: NCI-H441 xenograft tumor", "description": "Tumor-bearing animals were randomized and assigned into groups (n = 1–10/group). The vehicle at 10 mL/kg or RMC-6236 at indicated doses was administered via oral gavage daily, and animals were treated for 28 days, or up to 90 days if PFS was being assessed. […] For single-dose PKPD study, mice were randomized and assigned into groups (n = 3/dose/time point). A single dose of RMC-6236 was administered orally at either 3, 10, or 25 mg/kg. Blood and tissues, including the tumor, brain, colon, ear skin, and muscle, were harvested at indicated time points. Whole blood was collected in K2EDTA Microtainer tubes, incubated for 5 minutes, and snap-frozen in liquid nitrogen. The tissue was either fixed in 10% formalin or snap-frozen in liquid nitrogen for further analysis.\nRNA was extracted from at least 20 mg of tissue using an RNeasy Mini Kit (Qiagen, 74104) and a High-Throughput Tissue grinder following the manufacturer's protocol. Reverse transcription was carried out using High-Capacity cDNA Reverse Transcription Kit (ABI, 4368814) according to the manufacturer's protocol. The cDNA product was used for qPCR analysis using TaqMan Gene-Expression Master Mix (ABI, 4369016). TaqMan primer probes specific to DUSP6 (human—Hs00737962_m1, murine—Mm00518185_m1, FAM-MGB) and 18S (RNA18S1; human—Hs99999901_s1, murine—Mm03928990_g1, FAM-MGB, used as an internal control gene) were used to detect the levels from each sample in duplicates using a 10 µL final reaction volume in a 384-well clear optical reaction plate. For qPCR, Ct values of DUSP6 and 18S were obtained for analysis. DUSP6 Ct value was normalized to 18S, and then the mean relative mRNA expression levels of each group were normalized to the vehicle control group. Values were plotted as relative change in mRNA expression compared with vehicle. Means ± SEM were shown.\nConcentrations of RMC-6236 in tumor or normal tissues and percentage of DUSP6 inhibition as compared with the vehicle control from individual animals were collected and analyzed post a single dose of RMC-6236 ranging from 0.3 to 100 mg/kg (Supplementary Table S6). A 3-parameter sigmoidal exposure–response model was fitted to the data in GraphPad Prism to derive EC50 and EC90 values.", "note": "pEC50: −log10 of the molar value. Several values for one entry are separate records, joined by “and”; a condition that tells them apart may be missing. Equal values may be shown once."}
{"smiles": "CCn1c(-c2cc(N3CCN(C)CC3)cnc2[C@H](C)OC)c2c3cc(ccc31)-c1csc(n1)C[C@H](NC(=O)[C@H]1C[C@@H]1C)C(=O)N1CCC[C@H](N1)C(=O)OCC(C)(C)C2", "note": "[RMC-6236]", "values": [{"measurement": "DUSP6 mRNA Expression (%)", "setting": "Model Development Dataset, 40mg/kg_study8, 8 h", "result": 4.661, "unit": "%"}, {"measurement": "DUSP6 mRNA Expression (%)", "setting": "Model Development Dataset, 40mg/kg_study8, 24 h", "result": 3.474, "unit": "%"}, {"measurement": "DUSP6 mRNA Expression (%)", "setting": "Model Development Dataset, 40mg/kg_study8r (doses every 24 h, 0-[…]), 240 h", "result": 0.8569, "unit": "%"}, {"measurement": "DUSP6 mRNA Expression (%)", "setting": "Model Validation Dataset, 10mg/kg_study6, 1 h", "result": 45.187, "unit": "%"}, {"measurement": "DUSP6 mRNA Expression (%)", "setting": "Model Validation Dataset, 10mg/kg_study6, 8 h", "result": 5.053, "unit": "%"}, {"measurement": "DUSP6 mRNA Expression (%)", "setting": "Model Validation Dataset, 10mg/kg_study6, 24 h", "result": 13.225, "unit": "%"}, {"measurement": "DUSP6 mRNA Expression (%)", "setting": "Model Validation Dataset, 10mg/kg_study6, 48 h", "result": 62.867, "unit": "%"}, {"measurement": "DUSP6 mRNA Expression (%)", "setting": "Model Validation Dataset, 25mg/kg_study6, 1 h", "result": 48.7936, "unit": "%"}, {"measurement": "DUSP6 mRNA Expression (%)", "setting": "Model Validation Dataset, 25mg/kg_study6, 8 h", "result": 5.7726, "unit": "%"}, {"measurement": "DUSP6 mRNA Expression (%)", "setting": "Model Validation Dataset, 25mg/kg_study6, 24 h", "result": 9.122, "unit": "%"}, {"measurement": "DUSP6 mRNA Expression (%)", "setting": "Model Validation Dataset, 25mg/kg_study6, 48 h", "result": 14.7114, "unit": "%"}, {"measurement": "DUSP6 mRNA Expression (%)", "setting": "Model Validation Dataset, 25mg/kg_study6, 72 h", "result": 12.5199, "unit": "%"}, {"measurement": "DUSP6 mRNA Expression (%)", "setting": "Model Validation Dataset, 50mg/kg_study6, 1 h", "result": 16.7798, "unit": "%"}, {"measurement": "DUSP6 mRNA Expression (%)", "setting": "Model Validation Dataset, 50mg/kg_study6, 8 h", "result": 5.52, "unit": "%"}, {"measurement": "DUSP6 mRNA Expression (%)", "setting": "Model Validation Dataset, 50mg/kg_study6, 24 h", "result": 5.873, "unit": "%"}, {"measurement": "DUSP6 mRNA Expression (%)", "setting": "Model Validation Dataset, 50mg/kg_study6, 48 h", "result": 10.9912, "unit": "%"}, {"measurement": "DUSP6 mRNA Expression (%)", "setting": "Model Validation Dataset, 50mg/kg_study6, 72 h", "result": 10.0613, "unit": "%"}, {"measurement": "pEC50", "setting": "Mus musculus, NCI-H441, read-out: EC50, inhibition of DUSP6 expression vs RMC-6236 concentration (PK/PD relationship)", "result": 6.93}, {"measurement": "EC90", "setting": "Mus musculus, NCI-H441, read-out: EC90, inhibition of DUSP6 expression vs RMC-6236 concentration (PK/PD relationship)", "result": 1120, "unit": "nM"}, {"measurement": "% inhibition of DUSP6 vs control", "setting": "study NCI-H441#6, 10 mg/kg, 8h", "result": "94.3996% and 97.36% and 93.0812%"}, {"measurement": "% inhibition of DUSP6 vs control", "setting": "study NCI-H441#6, 10 mg/kg, 24h", "result": "92.8123% and 75.0577% and 92.455%"}, {"measurement": "% inhibition of DUSP6 vs control", "setting": "study NCI-H441#6, 25 mg/kg, 8h", "result": "92.2964% and 95.8141% and 94.5716%"}, {"measurement": "% inhibition of DUSP6 vs control", "setting": "study NCI-H441#6, 25 mg/kg, 24h", "result": "90.5813% and 91.1816% and 90.8706%"}, {"measurement": "% inhibition of DUSP6 vs control", "setting": "study NCI-H441#6, 25 mg/kg, 48h", "result": "88.2424% and 92.0524% and 75.571%"}, {"measurement": "% inhibition of DUSP6 vs control", "setting": "study NCI-H441#6, 50 mg/kg, 8h", "result": "94.9176% and 94.1618% and 94.3607%"}, {"measurement": "% inhibition of DUSP6 vs control", "setting": "study NCI-H441#6, 50 mg/kg, 24h", "result": "95.6815% and 94.6463% and 92.0524%"}, {"measurement": "% inhibition of DUSP6 vs control", "setting": "study NCI-H441#6, 50 mg/kg, 48h", "result": "89.9053% and 88.838% and 88.2831%"}, {"measurement": "% inhibition of DUSP6 vs control", "setting": "study NCI-H441#6, 100 mg/kg, 8h", "result": "96.2144% and 97.8257% and 94.7565%"}, {"measurement": "% inhibition of DUSP6 vs control", "setting": "study NCI-H441#6, 100 mg/kg, 24h", "result": "96.5645% and 97.2858% and 99.0371%"}, {"measurement": "% inhibition of DUSP6 vs control", "setting": "study NCI-H441#6, 100 mg/kg, 48h", "result": "97.3783% and 95.7557% and 95.9427%"}, {"measurement": "% inhibition of DUSP6 vs control", "setting": "study NCI-H441#8, 25 mg/kg, 2h", "result": "93.3108% and 86.9874% and 84.6322%"}, {"measurement": "% inhibition of DUSP6 vs control", "setting": "study NCI-H441#8, 25 mg/kg, 8h", "result": "99.2306% and 96.8685% and 99.3302%"}, {"measurement": "% inhibition of DUSP6 vs control", "setting": "study NCI-H441#8, 25 mg/kg, 24h", "result": "93.9294% and 85.711% and 93.9083%"}, {"measurement": "% inhibition of DUSP6 vs control", "setting": "study NCI-H441#8, 40 mg/kg, 2h", "result": "77.4222% and 82.1626% and 99.5296%"}, {"measurement": "% inhibition of DUSP6 vs control", "setting": "study NCI-H441#8, 40 mg/kg, 8h", "result": "94.9481% and 94.7152% and 96.3527%"}, {"measurement": "% inhibition of DUSP6 vs control", "setting": "study NCI-H441#8, 40 mg/kg, 24h", "result": "94.2767% and 98.3791% and 96.9223%"}, {"measurement": "% inhibition of DUSP6 vs control", "setting": "study NCI-H441#10, 0.3 mg/kg, 8h", "result": "46.2112% and 70.874% and 74.5563%"}, {"measurement": "% inhibition of DUSP6 vs control", "setting": "study NCI-H441#10, 0.3 mg/kg, 48h", "result": "38.4266% and 52.8484% and 73.0122%"}, {"measurement": "% inhibition of DUSP6 vs control", "setting": "study NCI-H441#10, 1 mg/kg, 48h", "result": "52.6847% and 48.936% and 65.7214%"}, {"measurement": "% inhibition of DUSP6 vs control", "setting": "study NCI-H441#10, 10 mg/kg, 8h", "result": "85.6375% and 96.6614% and 94.5007%"}, {"measurement": "% inhibition of DUSP6 vs control", "setting": "study NCI-H441#10, 10 mg/kg, 24h", "result": "85.7861% and 76.2602% and 81.9462%"}, {"measurement": "% inhibition of DUSP6 vs control", "setting": "study NCI-H441#10, 10 mg/kg, 48h", "result": "44.699% and 49.9869% and 60.6243%"}, {"measurement": "% inhibition of DUSP6 vs control", "setting": "study NCI-H441#13, 0.3 mg/kg, 8h", "result": "54.8539% and 55.936% and 78.3465%"}, {"measurement": "% inhibition of DUSP6 vs control", "setting": "study NCI-H441#13, 1 mg/kg, 2h", "result": "47.4169% and 56.5427% and 69.4833%"}]}
